Measurements from US4510139A, “Substituted aminobenzamides and their use as agents which inhibit lipoxygenase activity” (Sterling Drug Inc., priority 1984, dated 1985).
Like-named read-outs stand apart in the source and are kept apart here.

Assays:
[1] = target: T1, cyclooxygenase (Rattus norvegicus, UniProt Q63921); experiment: Inhibition of cyclooxygenase derived from rat basophilic leukemia (RBL-1) cells, product C1 (PGD2); format: biochemical
T1 construct: microsomal fraction containing lipoxygenase and cyclooxygenase; endogenous in cells; host or cells: RBL-1 (rat basophilic leukemia) cells, homogenate / microsomal fraction
T1 sequence (Q63921 27-602): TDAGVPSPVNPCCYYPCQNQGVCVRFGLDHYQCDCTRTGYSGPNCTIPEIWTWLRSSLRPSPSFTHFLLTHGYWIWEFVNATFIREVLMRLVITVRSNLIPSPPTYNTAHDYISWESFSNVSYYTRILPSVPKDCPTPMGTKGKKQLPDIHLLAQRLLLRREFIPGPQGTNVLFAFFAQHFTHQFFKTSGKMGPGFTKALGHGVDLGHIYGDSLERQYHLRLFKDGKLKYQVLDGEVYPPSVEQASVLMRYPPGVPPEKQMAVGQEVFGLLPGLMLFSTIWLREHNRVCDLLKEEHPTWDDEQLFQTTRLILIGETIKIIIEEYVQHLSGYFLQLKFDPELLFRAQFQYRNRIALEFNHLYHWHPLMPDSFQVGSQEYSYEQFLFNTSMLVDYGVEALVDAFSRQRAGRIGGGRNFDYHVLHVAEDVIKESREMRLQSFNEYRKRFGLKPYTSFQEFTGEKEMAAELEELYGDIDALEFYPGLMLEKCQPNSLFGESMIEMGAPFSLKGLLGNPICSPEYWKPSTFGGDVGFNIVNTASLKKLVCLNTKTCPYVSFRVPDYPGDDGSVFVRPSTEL
Method: (§1) The primary screening test used is a determination of the inhibition of lipoxygenase and cyclooxygenase derived from rat basophilic leukemia (RBL-1) cells. The test was carried out according to the following procedure:
(§2) Single cell suspensions of RBL-1 cells are homogenized to obtain the microsomal fraction containing lipoxygenase and cyclooxygenase. Test compounds are added to the enzyme-containing homogenate for a 5 min preincubation period at 37° C. prior to the addition of ^14 C-arachidonic acid substrate. Following incubation at 37° C. for 15 min, the reaction is stopped by the addition of 2M formic acid and the enzyme-substrate products are extracted into chloroform. An aliquot of the extract is evaporated to dryness, reconstituted in ether to 1/10 original volume, spotted in thin layer chromatography plates and chromatographed. The peak areas of radioactivity representing the products are located by scanning the plates. The quantity of products formed is estimated by measuring the height of the radioactivity peaks observed on the chromatographic scans. Alternatively, the areas of radioactivity are scraped from the plate and the ^14 C quantitated by scintillation counting.

[2] = target: T2, lipoxygenase (Rattus norvegicus, UniProt P12527); experiment: Inhibition of lipoxygenase derived from rat basophilic leukemia (RBL-1) cells, products L1 (5,12-di-HETE) and L2 (5-HETE); format: biochemical
T2 construct: microsomal fraction containing lipoxygenase and cyclooxygenase; endogenous in cells; host or cells: RBL-1 (rat basophilic leukemia) cells, homogenate / microsomal fraction
T2 sequence (P12527 1-673): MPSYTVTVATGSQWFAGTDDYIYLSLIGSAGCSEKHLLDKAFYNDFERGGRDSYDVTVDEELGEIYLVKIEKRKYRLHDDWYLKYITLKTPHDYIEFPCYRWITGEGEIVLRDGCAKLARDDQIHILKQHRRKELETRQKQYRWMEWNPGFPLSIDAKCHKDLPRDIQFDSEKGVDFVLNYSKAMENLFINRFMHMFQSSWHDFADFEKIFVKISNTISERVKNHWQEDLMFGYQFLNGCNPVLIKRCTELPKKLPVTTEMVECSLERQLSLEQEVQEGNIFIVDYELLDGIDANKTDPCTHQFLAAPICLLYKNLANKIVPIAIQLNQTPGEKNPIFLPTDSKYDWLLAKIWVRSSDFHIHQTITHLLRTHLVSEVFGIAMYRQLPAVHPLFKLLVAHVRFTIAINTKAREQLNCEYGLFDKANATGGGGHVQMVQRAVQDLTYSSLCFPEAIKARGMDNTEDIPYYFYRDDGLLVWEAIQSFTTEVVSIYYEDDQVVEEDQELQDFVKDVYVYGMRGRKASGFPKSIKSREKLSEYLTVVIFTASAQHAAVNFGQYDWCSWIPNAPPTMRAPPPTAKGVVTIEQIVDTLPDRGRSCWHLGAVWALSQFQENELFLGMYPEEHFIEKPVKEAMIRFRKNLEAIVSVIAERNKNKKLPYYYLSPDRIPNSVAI
Method: as §1, §2

[3] = system: SRS-A component of immunologically induced broncho-constriction; experiment: Effect on the SRS-A component of immunologically induced broncho-constriction in guinea pigs; format: in vivo; settings: Cavia porcellus; guinea pig, intravenous; read-out: ED50 (effective dose in 50% of the animals)
Method: The test was carried out according to the following procedure:
Two weeks after immunization with egg albumin, guinea pigs are prepared for bronchoconstriction determination. One hour prior to antigen challenge, each animal is dosed orally with indomethacin and chlorpheniramine. Animals are anesthetized with sodium pentobarbital, the trachea cannulated and the animal artifically respired. Arachidonic acid is administered intravenously prior to antigen challenge. The resulting bronchoconstriction is recorded by the standard lung overflow procedure and the peak increase in intratracheal pressure (mm Hg) over a 10 minute observation period is recorded. Compounds are evaluated for their ability to prevent the increased intratracheal pressure in an experimental group of animals as compared to the medicated (indomethacin+chlorpheniramine+arachidonic acid) control group. The results are expressed in terms of percent inhibition or as ED50 values (effective dose in 50% of the animals).

O=C(NCc1ccccc1)c1ccccc1Nc1ccc(O)cc1 [Example 11(b), 2-(4-Hydroxyphenylamino)-N-benzylbenzamide]
IC50 [1]: > 1000 nM
inhibition at 1 µM ([1]; dose of 1 μM, read-out: % Inhibition of cyclooxygenase (C1) formation): 0%
IC50 ([2]; IC50 L1, L1 = 5,12-di-HETE): 70 nM
IC50 ([2]; IC50 L2, L2 = 5-HETE): 40 nM
inhibition at 1 µM ([2]; read-out: % Inhibition of lipoxygenase (L1) formation): 87%
inhibition at 1 µM ([2]; read-out: % Inhibition of lipoxygenase (L2) formation): 96%
ED50 [3]: 0.61 mg/kg
